T1: Err1 (Trichoderma reesei, UniProt Q0GYU5)
T1 sequence (Q0GYU5 1-331): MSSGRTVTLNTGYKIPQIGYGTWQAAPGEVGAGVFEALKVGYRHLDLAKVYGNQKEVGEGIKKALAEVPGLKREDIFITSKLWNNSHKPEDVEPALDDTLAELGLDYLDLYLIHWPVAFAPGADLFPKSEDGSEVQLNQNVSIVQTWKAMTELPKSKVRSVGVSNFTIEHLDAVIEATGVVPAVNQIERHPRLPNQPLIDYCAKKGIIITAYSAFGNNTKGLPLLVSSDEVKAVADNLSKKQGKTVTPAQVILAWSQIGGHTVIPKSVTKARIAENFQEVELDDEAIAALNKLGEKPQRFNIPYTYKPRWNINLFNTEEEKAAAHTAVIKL

B1: Err1 (Trichoderma reesei) (protein)
chain: T1 sequence (Q0GYU5 1-331)

Legend:
[1] = molecular target: T2, GST::err1 fusion proteins (Trichoderma reesei, UniProt Q0GYU5); assay: Enzyme assay measuring NADPH-decrease with different substrates; format: biochemical; conditions: NADPH decrease at 340 nm; 400 μM NADPH, 10 mM substrate, 30° C., pH 7
T2 construct: made in house; host or cells: E. coli BL21 (DE3) pLysS
Description: The following 1 mL assay was performed: 400 μM NADPH (in 10 mM sodium phosphate buffer, pH 7), and 25 μL purified GST::err1 enzyme were mixed in an lmL quartz cuvette and incubated at 30° C. for 1 min. Then adding D-erythrose to a final concentration of 10 mM started the reaction. The decrease of NADPH concentration was measured in a spectrophotometer at 340 nm. As a control, a blank was performed using water instead of D-erythrose.

[2] = molecular target: T2, GST::err1 fusion proteins; assay: HPLC analysis of the enzymatic conversion of erythrose; format: biochemical; conditions: 4 mM NADPH, 5 mM erythrose, 25° C. or 37° C., 2 h
Description: The following 1 mL assays have been performed prior to HPLC analysis: Assay 1 comprised 4 mM NADPH (in 10 mM sodium phosphate buffer, pH 7), 25 μL purified GST::err1 enzyme, 5 mM erythrose and was incubated at 25° C. for 2 hours. Assay 2 was performed according to assay 1, but was incubated at 37° C. for 2 h. Both assays were stopped by incubating at 85° C. for 10 min and afterwards were filtered using 0.2 μm filters. As negative control assay 3 was performed like assay 1, but was immediately stopped by incubation at 85° C. for 10 min and assay 4 was performed according to assay 1, but sodium phosphate buffer instead of erythrose was used and it was immediately stopped at 85° C. for 10 min.
Analyses were performed using a Thermo Finnigan Surveyor HPLC instrument (Thermo Fisher Scientific, MA, US). All 10 μL samples were injected onto a Rezex RHM-Monosaccharide column (H+, 8%, 150×7.8 mm; Phenomenex, CA, US). Water was used as the mobile phase and elution was followed at 85° C., applying a flow rate of 0.3 mL/min for 20 min. 1 mM D-Erythrose (Sigma) and erythritol (Sigma) were used as reference substances.

Err1 = molecular target: T1, Err1; assay: Determination of Vmax and Km according to Liepins et al. (2006)
[3] = substrate: O=CC=O; assay: purified protein, by the assay type; conditions: other: substrate of Err1
[4] = substrate: O=C[C@H](O)CO; assay: purified protein, by the assay type; conditions: other: substrate of Err1

Molecule	Absorbance decrease [1] [mAbs/min]	enzymatic conversion of erythrose (HPLC) [2]	activity compared with the other substrates (Err1; higher activity versus substrates with good activity for GLD1)	Km (Err1; substrate of Err1) [µM]	Vmax (Err1; substrate of Err1) [nkat/mg]	Km [3] [µM]	Vmax [3] [µmol/min/mg]	Km [4] [µM]	Vmax [4] [µmol/min/mg]
O=C[C@H](O)[C@H](O)CO [Erythrose, D-erythrose]	−83.77	reduced to erythritol	approximately 10 fold	16	530				
O=CC=O [Glyoxal, glyoxal, reference compound]	−83.28								
B1						2400	22.5	900	9
